EP0677522A1, “8-METHOXYQUINOLONECARBOXYLIC ACID DERIVATIVE” (priority 1992, dated 1994)
≈ marks a conversion by molar mass, not a printed value.

Tests used:
[1] = system: Acinetobacter calcoaceticus ATCC 13006; test: In vitro antibacterial activity (MIC), Japan Society of Chemotherapy Standard; type: cell-based; conditions: ATCC13006, inoculated cells 10⁶ cells/ml
Protocol: (§1) The in vitro antibacterial activity (minimum inhibitory concentration, MIC, µg/ml) of the test compounds was determined according to Japan Society of Chemotherapy Standard [Chemotherapy, vol. 29, pp 76-79 (1981)].
(§2) Inoculated cells were 10⁶ cells/ml and the strain with * was incubated in a medium supplemented with 10% horse blood. The mark "1)" means quinolone resistant MRSA and "2)" means quinolone resistant bacteria.

[2] = system: Citrobacter freundii IFO 12681; test: as above; type: cell-based; conditions: IFO12681, inoculated cells 10⁶ cells/ml
Protocol: as §1, §2

[3] = system: Corynebacterium diphtheriae Tronto; test: as above; type: cell-based; conditions: inoculated cells 10⁶ cells/ml, medium supplemented with 10% horse blood
Protocol: as §1, §2

[4] = system: E. avium EAY-30; test: as above; type: cell-based; conditions: Enterococcus avium, EAY30, inoculated cells 10⁶ cells/ml
Protocol: as §1, §2

[5] = system: E. faecalis EFY-204; test: as above; type: cell-based; conditions: Enterococcus faecalis, EFY204; quinolone resistant bacteria; inoculated cells 10⁶ cells/ml
Protocol: as §1, §2

[6] = system: E. faecium EFMY-207; test: as above; type: cell-based; conditions: Enterococcus faecium, EFMY207; quinolone resistant bacteria; inoculated cells 10⁶ cells/ml
Protocol: as §1, §2

[7] = system: E. faecium EFMY-28; test: as above; type: cell-based; conditions: Enterococcus faecium, EFMY28; inoculated cells 10⁶ cells/ml
Protocol: as §1, §2

[8] = system: Enterobacter cloacae IFO 12937; test: as above; type: cell-based; conditions: IFO12937, inoculated cells 10⁶ cells/ml
Protocol: as §1, §2

[9] = system: Enterococcus faecalis LS-101; test: as above; type: cell-based; conditions: LS101, inoculated cells 10⁶ cells/ml
Protocol: as §1, §2

[10] = system: Escherichia coli NIHJ JC-2; test: as above; type: cell-based; conditions: NIHJJC2, inoculated cells 10⁶ cells/ml
Protocol: as §1, §2

[11] = system: Klebsiella pneumoniae DT; test: as above; type: cell-based; conditions: inoculated cells 10⁶ cells/ml
Protocol: as §1, §2

[12] = system: P. mirabilis IFO 3849; test: as above; type: cell-based; conditions: Proteus mirabilis, IFO3849; inoculated cells 10⁶ cells/ml
Protocol: as §1, §2

[13] = system: Proteus vulgaris IFO 3988; test: as above; type: cell-based; conditions: IFO3988, inoculated cells 10⁶ cells/ml
Protocol: as §1, §2

[14] = system: Pseudomonas aeruginosa IFO 12582; test: as above; type: cell-based; conditions: IFO12582, inoculated cells 10⁶ cells/ml
Protocol: as §1, §2

[15] = system: S. aureus No.88; test: as above; type: cell-based; conditions: Staphylococcus aureus; quinolone resistant MRSA; inoculated cells 10⁶ cells/ml
Protocol: as §1, §2

[16] = system: S. epidermidis ATCC 12228; test: as above; type: cell-based; conditions: Staphylococcus epidermidis, ATCC12228; inoculated cells 10⁶ cells/ml
Protocol: as §1, §2

[17] = system: S. epidermidis SEY-223; test: as above; type: cell-based; conditions: Staphylococcus epidermidis, SEY223; quinolone resistant bacteria; inoculated cells 10⁶ cells/ml
Protocol: as §1, §2

[18] = system: S. pneumoniae Type-III; test: as above; type: cell-based; conditions: Streptococcus pneumoniae; inoculated cells 10⁶ cells/ml; medium supplemented with 10% horse blood
Protocol: as §1, §2

[19] = system: S. viridans America; test: as above; type: cell-based; conditions: Streptococcus viridans; inoculated cells 10⁶ cells/ml; medium supplemented with 10% horse blood
Protocol: as §1, §2

[20] = system: Serratia marcescens IFO 12648; test: as above; type: cell-based; conditions: IFO12648, inoculated cells 10⁶ cells/ml
Protocol: as §1, §2

[21] = system: Shigella flexneri EW-10; test: as above; type: cell-based; conditions: EW10, inoculated cells 10⁶ cells/ml
Protocol: as §1, §2

[22] = system: Staphylococcus aureus FDA 209P; test: as above; type: cell-based; conditions: FDA209P, inoculated cells 10⁶ cells/ml
Protocol: as §1, §2

[23] = system: Streptococcus pyogenes C-203; test: as above; type: cell-based; conditions: C203, inoculated cells 10⁶ cells/ml, medium supplemented with 10% horse blood
Protocol: as §1, §2

[24] = system: B. fragilis BFY-18; test: Antibacterial effect against specific bacteria (MIC); type: cell-based; conditions: Bacteroides fragilis, BFY18; same manner as Experimental Example 1
Protocol: as §1
(§3) In the same manner as in Experimental Example 1, the antibacterial effect against specific bacteria such as Chlamydia, Mycoplasma and acid-fast bacteria and anaerobic bacteria was determined.

[25] = system: Chlamydia trachomatis D/UW-3Cx; test: as above; type: cell-based; conditions: same manner as Experimental Example 1
Protocol: as §1, §3

[26] = system: Mycobacterium smegmatis IFO 3153; test: as above; type: cell-based; conditions: Mycolicibacterium smegmatis, IFO3153; same manner as Experimental Example 1
Protocol: as §1, §3

[27] = system: Mycoplasma pneumoniae ATCC 29343; test: as above; type: cell-based; conditions: ATCC29343, same manner as Experimental Example 1
Protocol: as §1, §3

[28] = system: Ureaplasma urealyticum ATCC 27618; test: as above; type: cell-based; conditions: ATCC27618, same manner as Experimental Example 1
Protocol: as §1, §3

[29] = system: E. coli KC-14; test: MIC of the infectious bacteria used for experimental infection; type: cell-based; conditions: Escherichia coli, KC14; infectious strain of the mouse protection test
Protocol: as §1
(§4) Experimental infection was caused by intraperitoneal inoculation of respective bacteria to male mice. One hour after the inoculation, a test compound was orally administered to the mice. The therapeutic effect of each test compound was evaluated by reference to the 50% effective dose (ED₅₀) which was based on the survival ratio at 7 days after the administration according to the probit method [Proc. Soc. Exp. Med., Vol. 57, p 261-264 (1944)]. The minimum inhibitory concentration (MIC) of the infectious bacteria used was also determined. […]

[30] = system: S. aureus MRSA Y-238; test: as above; type: cell-based; conditions: Staphylococcus aureus, infectious strain of the mouse protection test
Protocol: as §1, §4

[31] = system: S. aureus Smith; test: as above; type: cell-based; conditions: Staphylococcus aureus; infectious strain of the mouse protection test
Protocol: as §1, §4

[32] = system: E. coli KC-14; test: Protection of mice from experimental infection; type: in vivo; conditions: Table 3-2: male mice; intraperitoneal inoculation (744×LD₅₀); oral administration one hour after inoculation; survival ratio at 7 days
Protocol: as §4

[33] = system: S. aureus MRSA Y-238; test: Protection of mice from experimental infection; type: in vivo; conditions: Table 3-2: male mice; intraperitoneal inoculation 7.5×10⁵ cells/mouse (185×LD₅₀); oral administration one hour after inoculation; survival ratio at 7 days
Protocol: as §4

[34] = system: S. aureus Smith; test: Protection of mice from experimental infection; type: in vivo; conditions: male mice; intraperitoneal inoculation 2.8×10⁶ cells/mouse (123×LD₅₀); oral administration one hour after inoculation; survival ratio at 7 days, probit method
Protocol: as §4

COc1c(N2CC[C@@](CN)(CF)C2)c(F)cc2c(=O)c(C(=O)O)cn(C3CC3)c12 [Example 17, (S)-7-(3-aminomethyl-3-fluoromethylpyrrolidin-1-yl)-1-cyclopropyl-6-fluoro-1,4-dihydro-8-methoxy-4-oxo-3-quinolinecarboxylic acid]
MIC [1]: 0.1 µg/mL (≈ 0.245 µM) | MIC [2]: 0.2 µg/mL (≈ 0.491 µM) | MIC [3]: 0.025 µg/mL (≈ 0.0614 µM) | MIC [4]: 0.2 µg/mL (≈ 0.491 µM) | MIC [5]: 1.56 µg/mL (≈ 3.83 µM) | MIC [6]: 3.13 µg/mL (≈ 7.68 µM) | MIC [7]: 0.39 µg/mL (≈ 0.957 µM) | MIC [8]: 0.39 µg/mL (≈ 0.957 µM) | MIC [9]: 0.025 µg/mL (≈ 0.0614 µM) | MIC [10]: 0.1 µg/mL (≈ 0.245 µM) | MIC [11]: 0.05 µg/mL (≈ 0.123 µM) | MIC [12]: 0.78 µg/mL (≈ 1.91 µM) | MIC [13]: 0.78 µg/mL (≈ 1.91 µM) | MIC [14]: 1.56 µg/mL (≈ 3.83 µM) | MIC [15]: 0.78 µg/mL (≈ 1.91 µM) | MIC [16]: 0.025 µg/mL (≈ 0.0614 µM) | MIC [17]: 0.78 µg/mL (≈ 1.91 µM) | MIC [18]: 0.05 µg/mL (≈ 0.123 µM) | MIC [19]: 0.1 µg/mL (≈ 0.245 µM) | MIC [20]: 0.39 µg/mL (≈ 0.957 µM) | MIC [21]: 0.025 µg/mL (≈ 0.0614 µM) | MIC [22]: 0.012 µg/mL (≈ 0.0295 µM) | MIC [23]: 0.1 µg/mL (≈ 0.245 µM) | MIC [24]: 0.2 µg/mL (≈ 0.491 µM) | MIC [25]: 0.025 µg/mL (≈ 0.0614 µM) | MIC [26]: 0.1 µg/mL (≈ 0.245 µM) | MIC [27]: 0.1 µg/mL (≈ 0.245 µM) | MIC [28]: 0.39 µg/mL (≈ 0.957 µM) | MIC [29]: 0.025 µg/mL | MIC [30]: 0.39 µg/mL | MIC [31]: ≤ 0.006 µg/mL | ED₅₀ (mg/mouse) (95% confidence limit) [32]: 0.011(0.008-0.015) mg/mouse | ED₅₀ (mg/mouse) (95% confidence limit) [33]: 1.540(1.103-2.151) mg/mouse | ED₅₀ (mg/mouse) (95% confidence limit) [34]: 0.031(0.021-0.044) mg/mouse
